Measurements taken from patent EP0255343A2, “L-aspartylfenchylamino alcohol derivatives” (priority 1986, dated 1988).
Residues, ends and D or L forms follow the SMILES beside them.

Experiments:
[1] = Sweetness threshold values determined by a limit method by a panel of 5 skilled flavorists; format: in vivo; conditions: for Taste intensity Threshold Values (%): dissolved in water, limit method, panel of 5 skilled flavorists; for Degree of Sweetness (time): relative to sucrose = 1
[2] = at 80°C and at a pH of 4; cited from earlier work

Which results are given for “3-N-(L-aspartyl)amino-1-fenchyl-2-butanol [Compound A]”?
Taste intensity Threshold Values (%) [1]: 0.001%; Degree of Sweetness (time) [1]: 600 time

Which “Taste intensity Threshold Values (%)” value [1] does the source give for “3-N-(L-aspartyl)amino-4-fenchyl-2-butanol [Compound B]” here?
The value was 0.0012%.

What about the “Degree of Sweetness (time)” value [1] of the same molecule?
Its value is 500 time.

For `COC(=O)C(NC(=O)[C@@H](N)CC(=O)O)C(=O)OC1C2(C)CCC(C2)C1(C)C` (mixture of isomers) [L-aspartyl-DL-aminomalonic acid methyl fenchyl diester], which stability [2] is on record?
Its stability is “lower than APM”.

For `COC(=O)[C@H](Cc1ccccc1)NC(=O)[C@@H](N)CC(=O)O` [APM, L-aspartyl-L-phenylalanine methyl ester] (H-Asp-Phe-OMe), which “Taste intensity Threshold Values (%)” value [1] is on record?
Its value is 0.004%.

And the “Degree of Sweetness (time)” value [1]?
Its value is 150 time.

For `OC[C@H]1O[C@@](CO)(O[C@H]2O[C@H](CO)[C@@H](O)[C@H](O)[C@H]2O)[C@@H](O)[C@@H]1O` [Sucrose, sucrose], which “Taste intensity Threshold Values (%)” value [1] is on record?
Its value is 0.6%.
